Counter-ions that a name gives are not always drawn. Like-named read-outs stand apart in the source and are kept apart here.
Experiments:
[1] = test system: Vibrio percolans MB-1272; assay: disc-plate bioassay using Vibrio percolans; settings: Comamonas terrigena; for zone of inhibition at 100 µg/mL: MB1272, read-out: disc zone size, 100γ/ml
[2] = test system: Escherichia coli W-MB-60; assay: disc zone bioassay of derivatives; assay type: cell-based; settings: WMB60, 100γ/ml, read-out: disc zone size
Source text: (§1) Bioassay: the disc zone sizes in the following table are expressed in mm. for 100γ/ml of antibiotic.
(§2) Bioassay: The disc zone sizes in the following table are expressed in mm. for equal concentrations of antibiotic.

[3] = test system: Pseudomonas stutzeri MB-1231; assay: disc zone bioassay of derivatives; assay type: cell-based; settings: Stutzerimonas stutzeri, MB1231, 100γ/ml; read-out: disc zone size
Source text: as §1
(§3) Bioassay: the disc zone sizes in the following table are expressed in mm. for equal concentrations of antibiotic.
as §2

[4] = test system: Salmonella gallinarum MB-1287; assay: disc zone bioassay of derivatives; assay type: cell-based; settings: Salmonella enterica, 100γ/ml, read-out: disc zone size
Source text: as §3, §2

[5] = test system: Proteus vulgaris; assay: disc-plate bioassay using Proteus vulgaris; settings: for zone of inhibition at 100 µg/mL: read-out: disc zone size
[6] = test system: Proteus morganii 3202; assay: mouse protection test; assay type: in vivo, mice; parameters: dose or concentration left out as unconfirmed; settings: × 2 doses, subcutaneous
Protocol: Methods: The method employed in this characterization is as follows: Female white Swiss mice, average weight 20-23 grams, were infected intraperitoneally with 3-20 times the number of organisms calculated to be lethal for 50% of the infected control animals (3-20 LD50 doses). At the time of infection and again 6 hours later, therapy was given by the designated route. Controls of the virulence of the culture and the toxicity of the antibiotic for uninfected mice were included in the tests. Seven days after infection the test was considered complete and the amount of the antibiotic (I) that would be required to protect 50% of the infected and treated animals was calculated by the method of Knudsen and Curtis; J. Amer. Stat. Assoc. Vol. 42: page 282 (1947).
The method employed in these studies is the same as described above with regard to the in vivo characterization of 810A. The results of these tests are described below in Table XIb:
Administration was by subcutaneous injection. At the completion of the test period, usually seven days after administration, the amount of product required to protect 50% of the mice (ED50) from this otherwise fatal injection was calculated: […]

[7] = test system: Proteus morganii 356; assay: mouse protection test, clinical isolate; assay type: in vivo, mice; settings: subcutaneous × 2 doses
Source text: In addition to the aforementioned in vivo trials of the product, a clinical isolate of Proteus morganii 356 which is resistant to cephalosporins and capable of degrading cephalosporin C, was employed in a mouse protection test performed in the same manner as reported above.

[8] = test system: Aerobacter cloacae MB-2646; assay: enzymatic inactivation by cell-free extract; settings: for Antibiotic Activity Remaining: start 250 μg/ml
Protocol: The ability of Antibiotic 810A and cephalosporin C to withstand the degradative effect of the culture Aerobacter cloacae (MB-2646) was also determined. This culture is gram-negative and resistant to cephalosporin C. […] The source of the inactivating substance is a 1:160 dilution of the filtrate of an 18 hour 37° C. shake culture of Aerobacter cloacae MB-2646 in nutrient broth containing 0.2% yeast extract. Table XIV, infra, indicates the percent inactivation of Antibiotic 810A, cephalothin, cephaloridine and cephalosporin C on Vibrio percolans (MB-1272) via this method:
Using the same assay procedure as described above, Table XV, infra, indicates the relative resistance of Antibiotic 810A to enzymatic inactivation by Aerobacter cloacae. The starting concentration is 250 μg./ml. Results are expressed in μg./ml.

[9] = test system: Alcaligenes viscosus MB-12; assay: bacterial inactivation by washed bacterial cells; settings: 4 hour; assayed on B. subtilis (MB-964); start 4 mg/ml
[10] = test system: Alcaligenes faecalis MB-9; assay: bacterial inactivation by washed bacterial cells; settings: start 4 mg/ml
[11] = test system: Escherichia coli 236; assay: bacterial inactivation; settings: 4 hours; assayed on B. subtilis (MB-964)
Protocol: (§4) These cultures are: Escherichia coli 236, Proteus morganii 251, Proteus morganii 356 and Proteus mirabilis 241. […] In conducting the assay, individual mixtures of the organisms and one of the antibiotics were sampled after four hours incubation and assayed for residual antibiotic activity. The procedure is the same assay method as described above against Alcaligenes faecalis MB-9 and A. viscosus MB-12.

[12] = test system: Proteus morganii 251; assay: bacterial inactivation; settings: 4 hours; assayed on B. subtilis (MB-964)
Protocol: as §4

[13] = test system: Proteus morganii 356; assay: bacterial inactivation; settings: 4 hours; assayed on B. subtilis (MB-964)
Protocol: as §4

[14] = test system: Proteus mirabilis 241; assay: bacterial inactivation; settings: 4 hours; assayed on B. subtilis (MB-964)
Protocol: as §4

[15] = test system: Brucella bronchiseptica; assay: microbe, parasite or virus in culture; assay type: cell-based; settings: Bordetella bronchiseptica, read-out: Inhibition Zone Diameter
[16] = test system: Proteus vulgaris; assay: disc-plate agar diffusion, antibacterial spectrum; assay type: cell-based; settings: 166 μg/ml, 37 °C, 7 mm = no zone, read-out: Inhibition Zone Diameter
[17] = test system: Alcaligenes faecalis; assay: disc-plate agar diffusion, antibacterial spectrum; assay type: cell-based; settings: 166 μg/ml, 37 °C, 7 mm = no zone, read-out: Inhibition Zone Diameter
[18] = test system: Escherichia coli, Streptothricin-resistant; assay: cross-resistance, disc-plate agar diffusion; assay type: cell-based; settings: read-out: Inhibition Zone Diameter
[19] = test system: Pseudomonas aeruginosa; assay: disc-plate agar diffusion, antibacterial spectrum; assay type: cell-based; settings: 166 μg/ml, 25 °C, 7 mm = no zone, read-out: Inhibition Zone Diameter
[20] = test system: Staphylococcus aureus (Streptomycin-Streptothricin-resistant); assay: disc-plate agar diffusion, antibacterial spectrum; assay type: cell-based; settings: read-out: Inhibition Zone Diameter
[21] = test system: Serratia marcescens; assay: disc-plate agar diffusion, antibacterial spectrum; assay type: cell-based; settings: 166 μg/ml, 25 °C, 7 mm = no zone, read-out: Inhibition Zone Diameter
[22] = test system: Escherichia coli, Neomycin-resistant; assay: cross-resistance, disc-plate agar diffusion; assay type: cell-based; settings: read-out: Inhibition Zone Diameter
[23] = test system: Escherichia coli W-MB-60; assay: special effects spectrum, disc-plate agar diffusion; assay type: cell-based; settings: WMB60, 166 μg/ml, read-out: Inhibition Zone Diameter
[24] = test system: Streptococcus faecalis; assay: disc-plate agar diffusion, antibacterial spectrum; assay type: cell-based; settings: Enterococcus faecalis; 166 μg/ml; 37 °C; 7 mm = no zone; read-out: Inhibition Zone Diameter
[25] = test system: Escherichia coli, Oxytetracycline-resistant; assay: cross-resistance, disc-plate agar diffusion; assay type: cell-based; settings: read-out: Inhibition Zone Diameter
[26] = test system: Vibrio percolans; assay: disc-plate agar diffusion, antibacterial spectrum; assay type: cell-based; settings: Comamonas terrigena; 166 μg/ml; 27 °C; 7 mm = no zone; read-out: Inhibition Zone Diameter
[27] = test system: Escherichia coli, Chloramphenicol-resistant; assay: cross-resistance, disc-plate agar diffusion; assay type: cell-based; settings: read-out: Inhibition Zone Diameter
[28] = test system: Staphylococcus aureus; assay: disc-plate agar diffusion, antibacterial spectrum; assay type: cell-based; settings: 166 μg/ml, 25 °C, 7 mm = no zone, read-out: Inhibition Zone Diameter
[29] = test system: Sarcina lutea; assay: disc-plate agar diffusion, antibacterial spectrum; assay type: cell-based; settings: Micrococcus luteus; 166 μg/ml; 25 °C; 7 mm = no zone; read-out: Inhibition Zone Diameter
[30] = test system: Escherichia coli, Viomycin-resistant; assay: cross-resistance, disc-plate agar diffusion; assay type: cell-based; settings: read-out: Inhibition Zone Diameter
[31] = 2 hour, assayed on B. subtilis 964
[32] = 2 hour, assayed on V. percolans 1272
[33] = 2 hour, assayed on V. percolans (MB-1272)

CO[C@@]1(NC(=O)CCC[C@@H](N)C(=O)O)C(=O)N2C(C(=O)O)=C(COC(N)=O)CS[C@@H]21
IC (25 mm zone) ([1]; MB1272, read-out: concentration giving a 25 mm zone, Vibrio percolans): 8 µg/mL

CO[C@@]1(NC(=O)CCC[C@@H](N)C(=O)O)C(=O)N2C(C(=O)O)=C(CSc3nc(C)cs3)CS[C@@H]21 [7β-(D-5-amino-5-carboxyvaleramido)-3-(4-methylthiazol-2-ylmercaptomethyl)-7-methoxy-3-cephem-4-carboxylic acid]
zone of inhibition at 100 µg/mL [1]: 20 mm | zone of inhibition at 100 µg/mL [2]: 14 mm | zone of inhibition at 100 µg/mL [3]: 13.5 mm

CO[C@@]1(NC(=O)CCC[C@@H](N)C(=O)O)C(=O)N2C(C(=O)O)=C(CN)CS[C@@H]21 [7β-(D-5-amino-5-carboxyvaleramido)-3-(aminomethyl)-7-methoxy-3-cephem-4-carboxylic acid]
zone of inhibition at 100 µg/mL [4]: 21 mm | zone of inhibition at 5 µg/mL ([1]; MB1272, read-out: disc zone size, 5γ/ml): 20 mm | zone of inhibition at 100 µg/mL [3]: 21 mm

COC(=Cc1ccc(O)cc1)C(=O)OCC1=C(C(=O)O)N2C(=O)[C@](NC(=O)CCC[C@@H](N)C(=O)O)(OC)[C@H]2SC1 [7β-(D-5-amino-5-carboxyvaleramido)-3-(α-methoxy-p-hydroxycinnamoyloxymethyl)-7-methoxy-3-cephem-4-carboxylic acid]
IC (25 mm zone) ([5]; read-out: concentration giving a 25 mm zone (bioassay potency)): 167 µg/mL

O=C(Cc1cccs1)N[C@@H]1C(=O)N2C(C(=O)[O-])=C(C[n+]3ccccc3)CS[C@H]12 [Cephaloridine]
protection [6]: failed to protect | ED50 (average of Two Trials) [7]: 9,270 μg | Antibiotic Activity Remaining [8, 31]: < 10 µg/mL | Antibiotic Activity Remaining [8, 32]: < 10 µg/mL | Percent Inactivation After Incubation With Cell-Free Extract ([8]; bacterial culture filtrate, 2 h): 96%

CC(=O)OCC1=C(C(=O)O)N2C(=O)[C@@H](NC(=O)CCC[C@@H](N)C(=O)O)[C@H]2SC1 [Cephalosporin C, reference compound]
Percent Inactivation After Incubation With Washed Bacterial Cells [9]: > 99% | Percent Inactivation After Incubation With Washed Bacterial Cells ([10]; 3 hour, assayed on B. subtilis (MB-964)): > 99% | Percent Inactivation After Incubation With Washed Bacterial Cells ([10]; 3 hour, assayed on V. percolans (MB-1272)): > 99% | Percent Inactivation After Incubation With Washed Bacterial Cells ([10]; 4 hour, assayed on B. subtilis (MB-964)): > 99% | Percent Inactivation After Incubation With Cell-Free Extract [8, 33]: 96% | percent inactivation [11]: > 99% | percent inactivation [12]: > 99% | percent inactivation [13]: > 99% | percent inactivation [14]: 72%

CC(=O)OCC1=C(C(=O)O)N2C(=O)[C@@H](NC(=O)Cc3cccs3)[C@H]2SC1 [Cephalothin]
protection [6]: failed to protect | ED50 (average of Two Trials) [7]: > 20,000 μg | Percent Inactivation After Incubation With Cell-Free Extract [8, 33]: 66% | Antibiotic Activity Remaining [8, 31]: 140 µg/mL | Antibiotic Activity Remaining [8, 32]: 85 µg/mL

CO[C@@]1(NC(=O)CCC[C@@H](N)C(=O)O)C(=O)N2C(C(=O)O)=C(COC(N)=O)CS[C@@H]21 [Disodium Salt of 842A]
zone of inhibition at 100 µg/mL [5]: 27 mm | zone of inhibition at 100 µg/mL [4]: 27 mm | zone of inhibition at 100 µg/mL [1]: 18 mm | zone of inhibition at 100 µg/mL [2]: 18 mm | zone of inhibition at 100 µg/mL [3]: 22 mm

CO[C@@]1(NC(=O)CCC[C@@H](N)C(=O)O)C(=O)N2C(C(=O)O)=C(COC(N)=O)CS[C@@H]21 [Free Acid]
zone of inhibition at 166 µg/mL [15]: 24 mm | zone of inhibition at 166 µg/mL [16]: 22 mm | zone of inhibition at 166 µg/mL [17]: 27 mm | zone of inhibition at 166 µg/mL [18]: 14 mm | zone of inhibition at 166 µg/mL [19]: 7 mm | zone of inhibition at 166 µg/mL [20]: 11 mm | zone of inhibition at 166 µg/mL [21]: 7 mm | zone of inhibition at 166 µg/mL [22]: 17 mm | zone of inhibition at 166 µg/mL ([23]; 0.1 M phosphate buffer pH 7, 25 °C): 29 mm | zone of inhibition at 166 µg/mL ([23]; 0.1 M phosphate buffer pH 9, 25 °C): 22 mm | zone of inhibition at 166 µg/mL ([23]; human blood plasma 20%, 25 °C): 22 mm | zone of inhibition at 166 µg/mL [24]: 7 mm | zone of inhibition at 166 µg/mL [25]: 23 mm | zone of inhibition at 166 µg/mL [26]: 30 mm | zone of inhibition at 166 µg/mL [27]: 17 mm | zone of inhibition at 166 µg/mL [28]: 7 mm | zone of inhibition at 166 µg/mL [29]: 10 mm | zone of inhibition at 166 µg/mL [30]: 16 mm

CO[C@@]1(NC(=O)CCC[C@@H](N)C(=O)O)C(=O)N2C(C(=O)O)=C(CSC(=N)N)CS[C@@H]21 [S-[7β-(D-5-amino-5-carboxyvaleramido)-4-carboxy-7-methoxy-3-cephem-3-yl-methyl]thiouronium]
zone of inhibition at 100 µg/mL [5]: 17 mm | zone of inhibition at 100 µg/mL [4]: 23 mm | zone of inhibition at 100 µg/mL [1]: 27 mm | zone of inhibition at 100 µg/mL [3]: 22 mm
